Experimental data published in the NIST ThermoML archive (doi:10.1016/j.jct.2015.12.025).

Assays:
[1] = refractive index (Na D-line) (dimensionless); xn = mol fraction of the nth substance listed; details: 102 kPa, Liquid, Standard Abbe refractometry
[2] = xn = mol fraction of the nth substance listed; details: 102 kPa, Liquid, Vibrating tube method

C[Si]1(CCC(F)(F)F)O[Si](C)(CCC(F)(F)F)O[Si](C)(CCC(F)(F)F)O1 (stereo not given) + COc1ccccc1
Details | mass density, 308.15 K [kg/m3] | mass density, 313.15 K [kg/m3] | mass density, 318.15 K [kg/m3] | mass density, 323.15 K [kg/m3] | refractive index, 308.15 K | refractive index, 313.15 K | refractive index, 318.15 K | refractive index, 323.15 K
[1], x1 = 0.0502 | – | – | – | – | 1.48464 | 1.48208 | 1.47955 | 1.47695
[1], x1 = 0.0999 | – | – | – | – | 1.4658 | 1.4633 | 1.46089 | 1.45834
[1], x1 = 0.15 | – | – | – | – | 1.45042 | 1.44796 | 1.44565 | 1.44317
[1], x1 = 0.1999 | – | – | – | – | 1.43774 | 1.43532 | 1.43308 | 1.43068
[1], x1 = 0.2501 | – | – | – | – | 1.42699 | 1.42468 | 1.42242 | 1.42006
[1], x1 = 0.2998 | – | – | – | – | 1.41796 | 1.41563 | 1.41345 | 1.41113
[1], x1 = 0.3498 | – | – | – | – | 1.41011 | 1.40783 | 1.40566 | 1.40338
[1], x1 = 0.4001 | – | – | – | – | 1.40327 | 1.401 | 1.39886 | 1.39659
[1], x1 = 0.4497 | – | – | – | – | 1.39729 | 1.39509 | 1.39295 | 1.39069
[1], x1 = 0.4997 | – | – | – | – | 1.39198 | 1.3898 | 1.38766 | 1.38549
[1], x1 = 0.5453 | – | – | – | – | 1.38765 | 1.38551 | 1.38335 | 1.3812
[1], x1 = 0.6001 | – | – | – | – | 1.38297 | 1.38081 | 1.37871 | 1.37655
[1], x1 = 0.6498 | – | – | – | – | 1.37914 | 1.37703 | 1.37495 | 1.37279
[1], x1 = 0.6995 | – | – | – | – | 1.3757 | 1.37358 | 1.37151 | 1.36941
[1], x1 = 0.7502 | – | – | – | – | 1.3725 | 1.37039 | 1.36832 | 1.36625
[1], x1 = 0.8 | – | – | – | – | 1.3696 | 1.36751 | 1.36547 | 1.36338
[1], x1 = 0.8491 | – | – | – | – | 1.36697 | 1.36492 | 1.36288 | 1.36086
[1], x1 = 0.8997 | – | – | – | – | 1.3645 | 1.36245 | 1.36042 | 1.35837
[1], x1 = 0.9497 | – | – | – | – | 1.36221 | 1.36019 | 1.35818 | 1.35616
[1], x1 = 1 | – | – | – | – | 1.36011 | 1.35808 | 1.35609 | 1.35407
[2], x1 = 0.0502 | 1018.9 | 1013.91 | 1008.94 | 1003.9 | – | – | – | –
[2], x1 = 0.0999 | 1050.1 | 1044.97 | 1039.74 | 1034.53 | – | – | – | –
[2], x1 = 0.15 | 1076.1 | 1070.73 | 1065.35 | 1059.95 | – | – | – | –
[2], x1 = 0.1999 | 1097.79 | 1092.31 | 1086.77 | 1081.24 | – | – | – | –
[2], x1 = 0.2501 | 1116.38 | 1110.76 | 1105.11 | 1099.47 | – | – | – | –
[2], x1 = 0.2998 | 1132.25 | 1126.52 | 1120.84 | 1115.01 | – | – | – | –
[2], x1 = 0.3498 | 1146.05 | 1140.29 | 1134.47 | 1128.62 | – | – | – | –
[2], x1 = 0.4001 | 1158.32 | 1152.45 | 1146.5 | 1140.45 | – | – | – | –
[2], x1 = 0.4497 | 1169.15 | 1163.11 | 1156.93 | 1151 | – | – | – | –
[2], x1 = 0.4997 | 1178.65 | 1172.56 | 1166.57 | 1160.21 | – | – | – | –
[2], x1 = 0.5453 | 1186.4 | 1180.31 | 1174.14 | 1168.04 | – | – | – | –
[2], x1 = 0.6001 | 1194.94 | 1188.71 | 1182.53 | 1176.37 | – | – | – | –
[2], x1 = 0.6498 | 1201.9 | 1195.72 | 1189.43 | 1183.1 | – | – | – | –
[2], x1 = 0.6995 | 1208.15 | 1201.84 | 1195.66 | 1189.14 | – | – | – | –
[2], x1 = 0.7502 | 1214.01 | 1207.72 | 1201.45 | 1194.99 | – | – | – | –
[2], x1 = 0.8 | 1219.27 | 1212.9 | 1206.52 | 1200.09 | – | – | – | –
[2], x1 = 0.8491 | 1223.97 | 1217.59 | 1211.19 | 1204.79 | – | – | – | –
[2], x1 = 0.8997 | 1228.56 | 1222.13 | 1215.62 | 1209.23 | – | – | – | –
[2], x1 = 0.9497 | 1232.67 | 1226.23 | 1219.73 | 1213.21 | – | – | – | –
[2], x1 = 1 | 1236.63 | 1230.05 | 1223.55 | 1216.99 | – | – | – | –
